For the test, the target named is T1, Hsp90α (Homo sapiens, UniProt P07900).
T1 construct: gene HSP90AA1; recombinant human Hsp90α (SPP-776)
As to the kind of experiment: SPR (Biacore […], immobilized Hsp90α). In kind it is binding. Background: In SPR one partner is held on a chip, and binding of the other changes the refractive index at the surface.

Molecules are shown by their SMILES.

For orientation: Kd means the free concentration of one partner at which half of the binding sites on the other are occupied at equilibrium, for simple one-to-one binding.

As to `NS(=O)(=O)c1ccc(CCn2c(=S)[nH]c3ccccc3c2=O)cc1` [compound 1, 4-(2-(4-Oxo-2-thioxo-1,4-dihydroquinazolin-3(2H)-yl)ethyl)benzene sulfonamide], the affinity, expressed as Kd, was 51 ± 2.9 nM.

(Values after article PMC7248782, “Synergistic Anti Leukemia Effect of a Novel Hsp90 and a Pan Cyclin Dependent Kinase Inhibitors” (Molecules, 2020).)
